Reference: patent US8835440B2, “Cyclic pyrimidin-4-carboxamides as CCR2 receptor antagonists for treatment of inflammation, asthma and COPD” (Boehringer Ingelheim International GmbH, priority 2008, dated 2014)

Target: T1, CCR2 (Homo sapiens, UniProt P41597)
T1 construct: Membranes were prepared from THP-1 cells; endogenous in cells; host or cells: THP-1 cells (membrane preparation)
T1 sequence (P41597 1-360 isoform P41597-2): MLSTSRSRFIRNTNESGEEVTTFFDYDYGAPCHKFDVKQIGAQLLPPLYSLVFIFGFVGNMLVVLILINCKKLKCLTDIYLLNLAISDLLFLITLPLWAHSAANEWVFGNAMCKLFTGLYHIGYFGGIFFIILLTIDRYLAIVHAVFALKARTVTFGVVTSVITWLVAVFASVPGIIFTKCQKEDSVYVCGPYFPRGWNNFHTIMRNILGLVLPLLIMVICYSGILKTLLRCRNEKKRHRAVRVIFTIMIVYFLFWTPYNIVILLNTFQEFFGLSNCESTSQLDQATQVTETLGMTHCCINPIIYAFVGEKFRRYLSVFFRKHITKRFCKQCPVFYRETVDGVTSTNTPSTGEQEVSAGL
Test: CCR2 receptor membrane binding assay ([125I]MCP-1, THP-1 cell membranes, SPA beads)
Details: for remaining activity at 10 µM: @ 10 μM test compound, THP-1 membranes, read-out: CCR2 % ctrl @ 10 μM; for Ki: dissociation constant hKi, [125I]MCP-1 binding to THP-1 membranes
Procedure: The above exemplary substances have been tested for binding to CCR2 using a binding assay as outlined herein below:
THP-1 cells (human acute monocytic leukaemia cells) were cultured under standardized conditions at 37° C. and 5% CO2 in a humidified incubator. THP-1 cells were cultivated in RPMI 1640 medium (Gibco 21875) containing 1% MEM-NEAA (Gibso 11140) 2 mM L-glutamine, 1.5 g/L sodium bicarbonate, 4.5 g/L glucose, 10 mM HEPES and 1.0 mM sodium pyruvate, 90%; 10% fetal calf serum (FCS Gibco 10500-064).
Membranes were prepared from THP-1 cells. THP-1 cells were centrifuged at 300×g at 4° C. for 10 min. The cell pellet was resuspendet in Phosphate Buffer Saline (PBS, including 10 μM Pefabloc and a protease inhibitor mix ‘complete’, Boehringer Mannheim (1 tablet/50 ml)), to a concentration of […]. The membrane preparation was performed by disrupting the cells by nitrogen […] (at 50 bar, for 1 h) in a “Nitrogen Bombe” (Parr Instrument). Cell debris was removed by centrifugation (800×g at 4° C., 1 min). The supernatant was centrifuged at 80000×g, 4° C. for 30 min to sediment the cell membranes. Usually 50 mg of protein (Bradford assay) were yielded from 1×10E9 cells. The membranes were resuspendet in 25 mM HEPES, 25 mM MgCl2, 1 mM CaCl2, 10% Glycerine for storage in aliquots at −80° C. in 25 mM HEPES, 25 mM MgCl2, 1 mM CaCl2, 10% Glycerine and stored at −80° C.
Receptor Membrane Binding Assay:
Perkin Elmer NEX 332 Jod 125 MCP-1, Stock: 2200 Ci/mmol solved in 2000 μl assay buffer, stored at −20° C. THP-1 membrane were adjusted with 25 mM HEPES, pH 7.2; 5 mM MgCl2; 0.5 mM CaCl2; 0.2% BSA assay buffer to a concentration of […]. Amersham Biosciences PVT-WGA Beads (RPNQ0001) were adjusted with assay buffer to a concentration of 0.24 mg/30 μl. For preparation of the membrane-bead-suspension membranes and beads were incubated for 30 min at RT under rotation (60 rpm) with a ratio of 1:2. Test compounds dissolved in 100% DMSO to a concentration of 10 mM and are further diluted with 100% DMSO to 1 mM. All additional compound dilutions were obtained with assay buffer, final 1% DMSO. Compounds, membrane-bead-suspension and [125I]MCP-1 (ca. 25000 cpm/10 μl) were incubated. Bound radioactivity was determined by scintillation counter after 8 h. Determination of affinity of test compounds (dissociation constant hKi) is calculated by iterative fitting of experimental data using the “easy sys” program, which is based on law of mass action (Schittkowski K. (1994), Numerische Mathematik, Vol. 68, 129-142).

remaining activity at 10 µM | Ki | SMILES
4% | 43 nM | Cc1nc(NCc2ccc(Cl)c(Cl)c2)c(C)c(C(=O)N2CCC(N3CCC(N(C)S(C)(=O)=O)CC3)CC2)n1 [Example 82]
34% | 924 nM | Cc1c(NCCc2ccc(Cl)c(Cl)c2)ncnc1C(=O)N1CCC(N2CC[C@@H](C(N)=O)C2)CC1 [Example 232]
 | 961 nM | COC1COCCC1NC1CCN(C(=O)c2ncnc(NC3Cc4ccccc4C3)c2C)CC1 (stereo not drawn) [Example 159ec]
14% | 239 nM | Cc1c(NCc2ccc(Cl)c(Cl)c2)ncnc1C(=O)N1CCC(N2CCC(O)C2)CC1 (stereo not drawn) [Example 238]
0% | 29 nM | Cc1c(NCc2ccc(C(C)(C)C)cc2)ncnc1C(=O)N1CCC(N(C)C2CCOCC2)CC1 [Example 275a]
 | 561 nM | CC(=O)N1CCC[C@@H](NC2CCN(C(=O)c3ncnc(NCc4ccc(C(C)(C)C)cc4)c3C)CC2)C1 [Example 228gc]
 | 22 nM | Cc1cccc(C2CCC(CNc3ncnc(C(=O)N4CCC(N5CCC(N(C)S(C)(=O)=O)CC5)CC4)c3C)O2)c1 (stereo not drawn) [Example 159ra]
16% | 230 nM | Cc1ccc(COc2ncnc(C(=O)N3CCC(N4CCC(N(C)S(C)(=O)=O)CC4)CC3)c2C)cc1F [Example 294]
2% | 170 nM | COC1CCN(C2CCN(C(=O)c3ncnc(NCc4ccc(Cl)c(F)c4)c3C)CC2)CC1 [Example 95]
 | 24 nM | CNC(=O)C1CCN(C2CCN(C(=O)c3ncnc(NCC4CCCC(c5ccccc5)C4)c3C)CC2)CC1 (stereo not drawn) [Example 159i]
22% | 387 nM | Cc1c(NCCc2ccc(OC(F)(F)F)cc2)ncnc1C(=O)N1CCC(N2CCC(O)CC2)CC1 [Example 14]
16% | 246 nM | Cc1c(NCCc2ccc(Cl)c(Cl)c2)ncnc1C(=O)N1CCC(N2CCC(F)CC2)CC1 [Example 167]
 | 33 nM | Cc1c(NC[C@H]2CC[C@H](c3ccc(Cl)cc3)O2)ncnc1C(=O)N1CCC(N2CCC(N(C)S(C)(=O)=O)CC2)CC1 [Example 159wa]
47% | 2410 nM | Cc1c(N[C@@H]2CCc3ccccc3C2)ncnc1C(=O)N1CCC(N2CCC(O)CC2)CC1 [Example 25]
 | 15 nM | Cc1c(NCC2CCCC(C)C2)ncnc1C(=O)N1CCC(N2CCC(N(C)S(C)(=O)=O)CC2)CC1 (stereo not drawn) [Example 159g]
24% | 366 nM | Cc1c(NCc2ccc(Cl)c(Cl)c2)ncnc1C(=O)N1CCC(N2CCC(F)(F)CC2)CC1 [Example 244]
6% | 123 nM | Cc1c(NCc2ccc(C(C)(C)C)cc2)ncnc1C(=O)N1CCC(N2CCC(Oc3ccccn3)CC2)CC1 [Example 204]
22% | 333 nM | CO[C@@H]1CN(C2CCN(C(=O)c3ncnc(NCc4ccc(Cl)c(Cl)c4)c3C)CC2)CC[C@H]1N(C)S(C)(=O)=O [Example 227]
 | 32 nM | CO[C@@H]1COCC[C@@H]1N(C)C1CCN(C(=O)c2ncnc(NCc3ccc(C(C)(C)C)cc3)c2C)CC1 [Example 228ha]
3% | 69 nM | Cc1c(OCc2ccc(C(C)(C)C)cc2)ncnc1C(=O)N1CCC(N2CCC(N(C)S(C)(=O)=O)CC2)CC1 [Example 296]
6% | 55 nM | Cc1c(NCC2CCCC(c3ccccc3)C2)ncnc1C(=O)N1CCC(N2CCCCC2)CC1 (stereo not drawn) [Example 131]
 | 17 nM | C=Cc1c(NC[C@H]2CCC[C@@H](c3ccccc3)C2)ncnc1C(=O)N1CCC(N2CCC(N(C)S(C)(=O)=O)CC2)CC1 [Example 275dk]
23% | 399 nM | Cc1c(NCc2ccc(Cl)c(F)c2)ncnc1C(=O)N1CCC(N2CCCCC2)CC1 [Example 134]

remaining activity at 10 µM | Ki | SMILES
 | 7 nM | CNC(=O)C1CCN(C2CCN(C(=O)c3ncnc(NCC4CCCC(c5ccc(Cl)cc5)C4)c3C)CC2)CC1 (stereo not drawn) [Example 159ea]
9% | 133 nM | Cc1c(NCCc2ccc(Cl)c(Cl)c2)ncnc1C(=O)N1CCC(N2CCOC(C)C2)CC1 (stereo not drawn) [Example 237]
23% | 462 nM | Cc1c(NCc2ccc(C(C)(C)C)cc2)ncnc1C(=O)N1CCC(N2CC[C@@H](C(N)=O)C2)CC1 [Example 265]
1% | 15 nM | Cc1c(NCc2ccc(C(C)(C)C)cc2)ncnc1C(=O)N1CCC(NC2CCOc3ccccc32)CC1 (stereo not drawn) [Example 228f]
26% | 445 nM | Cc1c(NCc2ccc(F)c(Cl)c2)ncnc1C(=O)N1CCC(N2CCCCC2)CC1 [Example 128]
0% | 22 nM | CCS(=O)(=O)N(C)C1CCN(C2CCN(C(=O)c3ncnc(NCc4ccc(C(F)(F)F)c(Cl)c4)c3C)CC2)CC1 [Example 33]
2% | 37 nM | CCS(=O)(=O)N(C)C1CCN(C2CCN(C(=O)c3ncnc(NCc4ccc(C)c(Cl)c4)c3C)CC2)CC1 [Example 32]
 | 22 nM | CCC1CCC(CNc2ncnc(C(=O)N3CCC(N4CCC(N(C)S(C)(=O)=O)CC4)CC3)c2C)CC1 (stereo not drawn) [Example 159k]
30% | 2000 nM | Cc1c(NCc2ccc(C(C)(C)C)cc2)ncnc1C(=O)N1CCCC(N2CCC(N(C)S(C)(=O)=O)CC2)CC1 (stereo not drawn) [Example 161]
11% | 101 nM | CNS(=O)(=O)C1CCN(C2CCN(C(=O)c3ncnc(NCc4ccc(Cl)c(Cl)c4)c3C)CC2)CC1 [Example 254]
 | 24 nM | COC1CCN(C2CCN(C(=O)c3ncnc(NCC4CCCC(c5ccc(F)cc5)C4)c3C)CC2)CC1 (stereo not drawn) [Example 159kb]
20% | 711 nM | CNC(=O)C[C@H]1CCCN1C1CCN(C(=O)c2ncnc(NCc3ccc(C(C)(C)C)cc3)c2C)CC1 [Example 214]
 | 27 nM | Cc1nc(NCC2CCC(c3ccc(C)c(F)c3)O2)c(C)c(C(=O)N2CCC(N3CCC(N(C)S(C)(=O)=O)CC3)CC2)n1 (stereo not drawn) [Example 159ta]
2% | 306 nM | Cc1c(NCCc2ccc(Cl)c(Cl)c2)ncnc1C(=O)N1CCC(N2CC[C@@H](O)[C@@H](O)C2)CC1 [Example 246]
42% | 2150 nM | CNC(=O)C[C@@H]1CCCN1C1CCN(C(=O)c2ncnc(NCc3ccc(C(C)(C)C)cc3)c2C)CC1 [Example 215]
13% | 55 nM | Cc1nc(NC[C@@H]2CCN(c3ccccc3)C2)c(C)c(C(=O)N2CCC(N3CCC(N(C)S(C)(=O)=O)CC3)CC2)n1 [Example 85]
6% | 58 nM | Cc1nc(NCc2ccc(Cl)c(Cl)c2)c(C)c(C(=O)N2CCC(N3CCC(NS(C)(=O)=O)CC3)CC2)n1 [Example 88]
 | 11 nM | Cc1c(NCC2CCCC(c3ccc(F)cc3)C2)ncnc1C(=O)N1CCC(N2CCC(N(C)S(C)(=O)=O)CC2)CC1 (stereo not drawn) [Example 159z]
 | 28 nM | Cc1c(NCc2ccc(C(C)(C)C)cc2)ncnc1C(=O)N1CCC(N2C3CCC2CC(O)C3)CC1 (stereo not drawn) [Example 228gm]
8% | 76 nM | Cc1c(NCC2CCCN(c3ccccc3)C2)ncnc1C(=O)N1CCC(N2CCC(N(C)S(C)(=O)=O)CC2)CC1 (stereo not drawn) [Example 155]
 | 20 nM | Cc1c(NCC2CCC(c3ccc(C(F)(F)F)cc3)O2)ncnc1C(=O)N1CCC(N2CCC(N(C)S(C)(=O)=O)CC2)CC1 (stereo not drawn) [Example 159hb]
31% | 705 nM | Cc1c(NCCc2ccc(Cl)c(Cl)c2)ncnc1C(=O)N1CCC(N2CCC(NC(=O)C(C)C)CC2)CC1 [Example 170]
